The results in this text go back to patent publication US8143262B2, “7-(3′,4′-Dialkoxyphenyl)[1,2,4]-triazolo[1,5-A]pyrimidine compounds, process for preparing thereof, and pharmaceutical composition for treating or preventing asthma, chronic obstructive pulmonary disease, arthritis, atopic dermatitis, tumor and degenerative brain diseases comprising the same” (Korea Research Institute of Chemical Technology, priority 2007, dated 2012).

T1 sequence (Q08499 386-715 limits assumed): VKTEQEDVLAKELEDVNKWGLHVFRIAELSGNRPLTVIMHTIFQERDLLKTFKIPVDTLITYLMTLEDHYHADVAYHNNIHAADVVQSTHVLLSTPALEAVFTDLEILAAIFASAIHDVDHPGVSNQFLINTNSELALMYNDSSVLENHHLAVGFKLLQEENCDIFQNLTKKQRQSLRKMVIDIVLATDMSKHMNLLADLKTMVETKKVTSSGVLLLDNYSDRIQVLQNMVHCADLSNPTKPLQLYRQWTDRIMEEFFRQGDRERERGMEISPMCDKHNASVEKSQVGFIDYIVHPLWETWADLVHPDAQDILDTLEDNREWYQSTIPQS

One assay concerns the target T1, Human PDE-4d (Homo sapiens, UniProt Q08499).
T1 construct: The catalytic domain of PDE4d was cloned to pGEX4T3 (APBiotech) as GST fusion expression vector; GST (N); made in house; host or cells: E. coli BL21, DE3
Description: Inhibition of PDE-4 activity ([3H]cAMP hydrolysis, recombinant catalytic domain). The class given is biochemical. To be noted: PDE4d 1 nM, cAMP 250 nM, 34° C., 45 minutes; read-out: IC50 against PDE-4 enzyme. How it is done:
Experiment of inhibiting PDE-4 activity was carried out by modifying the method of Loughney (Loughney et al., Journal of Biological Chemistry, 1996, 271(2), 796-806). Human PDE-4d prepared by means of gene recombination technology was used as PDE-4d
The catalytic domain of PDE4d was cloned to pGEX4T3 (APBiotech) as GST fusion expression vector, and then PDE4d gene was transformed to E. coli BL21, DE3. The strain was cultured at 37° C. in LB medium, and when OD reached about 0.3˜0.5, the temperature was lowered to 18° C. to induce expression of PDE4d by using 0.5 mM IPTG. After 15 hours from induction of the expression, cells with PDE4d expressed were recovered. The cells were suspended in a buffer solution (50 mM Tris, pH 8.0, 0.4M NaCl, 5 mM DTT), and crushed, centrifuged and purified. The columns used for the purification were Q-cephalose (APBiotech), Glutanione-cephalose (APBiotech) and Superdex200 gel permeation chromatography (APBiotech), in this order.
In order to measure the ability of individual compound to inhibit PDE4d activity, PDE4d 1 nM and cAMP (Sigma) 250 nM as substrate were added to the reaction buffer (50 mM Tris-HCl (pH 7.5) and 4 mM MgCl2), and individual compound obtained from Example 1 was added in a concentration from 1 to 50 μM thereto, and the mixture was reacted at 34° C. for 45 minutes. Total reaction solution was 60 μl. As to cAMP, a mixture with the ratio of [^3H]cAMP (Amersham, 1 μCi/μl) to cAMP (hot:cold, that is, isotope:non-isotope) being 1:200 was used. Then, the reaction was quenched by heating at 95° C. for 2 minutes. After cooling the mixture for 3 minutes, 1 mg/ml of Snake Venome (Sigma V0376) (30 μl) was added thereto. After reacting at 34° C. for 30 minutes, 30 μl of the reaction mixture was added to 250 μl of DOWEX 1×2-100 ion exchange resin (Aldrich, previously mixed with distilled water in a ratio of 1:1.6) by portions, and the mixture was vigorously stirred for 2 minutes. After settling the resin down, the supernatant (130 μl) was added to 2 ml of scintillation cocktail (Packard), and the mixture was thoroughly mixed, and then measured by using beta-counter. With respect to the enzyme activity of control group (experiment carried out without adding compound of Chemical Formula (1)), the concentration of each test compound to inhibit 50% of enzyme activity was determined as IC50.
As to `FC(F)Oc1ccc(-c2ccnc3nc(-c4ccc(Cl)nc4)nn23)cc1OCC1CC1` [Compound 104, 2-(6-chloropyridin-3-yl)-7-[3-(cyclopropylmethoxy)-4-(difluoromethoxy)phenyl]-[1,2,4]triazolo[1,5-a]pyrimidine], the IC50 – broadly, the concentration needed to halve the response being measured – worked out at 0.16 µM.
The same measure, in the same setting: the result for `[O-][n+]1cccc(-c2nc3nccc(-c4ccc(OC(F)F)c(OCC5CC5)c4)n3n2)c1Cl` [Compound 109, 3-[7-{3-(Cyclopropylmethoxy)-4-(difluoromethoxy)phenyl}-[1,2,4]triazolo[1,5-a]pyrimidine-2-yl]-2-Chloropyridine-N-oxide] reads 0.16 µM; that for `FC(F)Oc1ccc(-c2ccnc3nc(-c4cccc(I)c4)nn23)cc1OCC1CC1` [Compound 126, 7-[3-(Cyclopropylmethoxy)-4-(difluoromethoxy)phenyl]-2-(3-iodophenyl)-[1,2,4]triazolo[1,5-a]pyrimidine], 0.005 µM; that for `O=[N+]([O-])c1cccc(-c2nc3nccc(-c4ccc(OC(F)F)c(OCC5CC5)c4)n3n2)c1` [Compound 116, 7-[3-(Cyclopropylmethoxy)-4-(difluoromethoxy)phenyl]-2-(3-nitrophenyl)-[1,2,4]triazolo[1,5-a]pyrimidine], 0.02 µM.
Still for that read-out and setting: as for `COC(=O)c1ccc(-c2nc3nccc(-c4ccc(OC(F)F)c(OCC5CC5)c4)n3n2)cn1` [Compound 138, 5-[7-{3-(cyclopropylmethoxy)-4-(difluoromethoxy)phenyl}-[1,2,4]triazolo[1,5-a]pyrimidin-2-yl]pyridine-2-carboxylic acid methyl ester], the figure is 0.18 µM; as for `COc1cc(-c2nc3nccc(-c4ccc(OC(F)F)c(OCC5CC5)c4)n3n2)ccc1C` [Compound 134, 7-[3-(Cyclopropylmethoxy)-4-(difluoromethoxy)phenyl]-2-(3-methoxy-4-methylphenyl)-[1,2,4]triazolo[1,5-a]pyrimidine], 0.04 µM.
Take `O=C(O)c1ccc(-c2nc3nccc(-c4ccc(OC(F)F)c(OCC5CC5)c4)n3n2)cn1` [Compound 137, 5-[7-{3-(cyclopropylmethoxy)-4-(difluoromethoxy)phenyl}-[1,2,4]triazolo[1,5-a]pyrimidin-2-yl]pyridine-2-carboxylic acid]: the IC50 is 0.2 µM.
For the compound `FC(F)Oc1ccc(-c2ccnc3nc(-c4cccnc4)nn23)cc1OCC1CC1` [Compound 101, 7-[3-(cyclopropylmethoxy)-4-(difluoromethoxy)phenyl]-2-pyridin-3-yl-[1,2,4]triazolo[1,5-a]pyrimidine], the IC50 is 0.018 µM.
The same measure, in the same setting: the result for `N#Cc1ccc(-c2nc3nccc(-c4ccc(OC(F)F)c(OCC5CC5)c4)n3n2)cc1` [Compound 117, 2-(4-Cyanophenyl)-7-[3-(cyclopropylmethoxy)-4-(difluoromethoxy)phenyl]-[1,2,4]triazolo[1,5-a]pyrimidine] reads 0.05 µM.
Still for that read-out and setting: as for `NC(=O)c1ccc(-c2nc3nccc(-c4ccc(OC(F)F)c(OCC5CC5)c4)n3n2)cn1` [Compound 139, 5-[7-{3-(cyclopropylmethoxy)-4-(difluoromethoxy)phenyl}-[1,2,4]triazolo[1,5-a]pyrimidin-2-yl]pyridine-2-carboxamide], the figure is 0.046 µM; as for `COc1ccc(-c2ccnc3nc(-c4cccnc4)nn23)cc1OC1CCCC1` [Compound 135, 7-[3-(Cyclopentoxy)-4-methoxyphenyl]-2-(3-pyridyl)-[1,2,4]triazolo[1,5-a]pyrimidine], 0.05 µM.
For `COc1cccc(-c2nc3nccc(-c4ccc(OC(F)F)c(OCC5CC5)c4)n3n2)c1` [Compound 107, 7-[3-(Cyclopropylmethoxy)-4-(difluoromethoxy)phenyl]-2-(3-methoxyphenyl)-[1,2,4]triazolo[1,5-a]pyrimidine], the IC50 amounted to 0.006 µM.
For `[O-][n+]1ccc(-c2nc3nccc(-c4ccc(OC(F)F)c(OCC5CC5)c4)n3n2)cc1` [Compound 110, 4-[7-{3-(Cyclopropylmethoxy)-4-(difluoromethoxy)phenyl}-[1,2,4]triazolo[1,5-a]pyrimidine-2-yl]-pyridine-N-oxide], the IC50 stood at 0.16 µM.
The same measure, in the same setting: as for `FC(F)Oc1ccc(-c2ccnc3nc(-c4cccc(Cl)c4)nn23)cc1OCC1CC1` [Compound 120, 2-(3-Chlorophenyl)-7-[3-(cyclopropylmethoxy)-4-(difluoromethoxy)phenyl]-[1,2,4]triazolo[1,5-a]pyrimidine], the figure is 0.04 µM; as for `O=C(O)c1ccc(-c2nc3nccc(-c4ccc(OC(F)F)c(OCC5CC5)c4)n3n2)cc1` [Compound 118, 4-[7-{3-(cyclopropylmethoxy)-4-(difluoromethoxy)phenyl}-[1,2,4]triazolo[1,5-a]pyrimidin-2-yl]benzoic acid], 0.03 µM; as for `FC(F)Oc1ccc(-c2ccnc3nc(-c4ccc(I)cc4)nn23)cc1OCC1CC1` [Compound 127, 7-[3-(Cyclopropylmethoxy)-4-(difluoromethoxy)phenyl]-2-(4-iodophenyl)-[1,2,4]triazolo[1,5-a]pyrimidine], 0.05 µM.
`N#Cc1cccc(-c2nc3nccc(-c4ccc(OC(F)F)c(OCC5CC5)c4)n3n2)c1` [Compound 115, 2-(3-Cyanophenyl)-7-[3-(cyclopropylmethoxy)-4-(difluoromethoxy)phenyl]-[1,2,4]triazolo[1,5-a]pyrimidine]: the IC50 is 0.01 µM.
Take `COc1ccc(-c2ccnc3nc(-c4cccc(C#N)c4)nn23)cc1OC1CCCC1` [Compound 129, 7-[3-(Cyclopentoxy)-4-methoxyphenyl]-2-(3-cyanophenyl)-[1,2,4]triazolo[1,5-a]pyrimidine]: the IC50 came to 0.013 µM.
With `Nc1cccc(-c2nc3nccc(-c4ccc(OC(F)F)c(OCC5CC5)c4)n3n2)c1` [Compound 119, 2-(3-Aminophenyl)-7-[3-(cyclopropylmethoxy)-4-(difluoromethoxy)phenyl]-[1,2,4]triazolo[1,5-a]pyrimidine], the IC50 came out at 0.006 µM.
On the same count and under the same terms, as for `FC(F)Oc1ccc(-c2ccnc3nc(-c4ccncc4)nn23)cc1OCC1CC1` [Compound 103, 7-[3-(Cyclopropylmethoxy)-4-(difluoromethoxy)phenyl]-2-pyridin-4-yl-[1,2,4]triazolo[1,5-a]pyrimidine], the figure is 0.079 µM; as for `FC(F)Oc1ccc(-c2ccnc3nc(-c4cccnc4)nn23)cc1OCC1CC1` [Compound 112, 3-[7-{3-(cyclopropylmethoxy)-4-(difluoromethoxy)phenyl}-[1,2,4]triazolo[1,5-a]pyrimidin-2-yl]-pyridinium chloride], 0.033 µM.
The same measure, in the same setting: the result for `FC(F)Oc1ccc(-c2ccnc3nc(-c4cccc(C(F)(F)F)c4)nn23)cc1OCC1CC1` [Compound 128, 7-[3-(Cyclopropylmethoxy)-4-(difluoromethoxy)phenyl]-2-(3-trifluoromethylphenyl)-[1,2,4]triazolo[1,5-a]pyrimidine] reads 0.03 µM; that for `N#Cc1ncccc1-c1nc2nccc(-c3ccc(OC(F)F)c(OCC4CC4)c3)n2n1` [Compound 124, 2-(6-cyano-pyridin-5-yl)-7-[3-(cyclopropylmethoxy)-4-(difluoromethoxy)phenyl]-[1,2,4]triazolo[1,5-a]pyrimidine], 0.19 µM; that for `FC(F)Oc1ccc(-c2ccnc3nc(-c4cccc(Br)c4)nn23)cc1OCC1CC1` [Compound 121, 2-(3-Bromophenyl)-7-[3-(cyclopropylmethoxy)-4-(difluoromethoxy)phenyl]-[1,2,4]triazolo[1,5-a]pyrimidine], 0.014 µM.
With `FC(F)Oc1ccc(-c2ccnc3nc(-c4cccnc4)nn23)cc1OC(F)F` [Compound 114, 7-(3,4-Bis-difluoromethoxyphenyl)-2-pyridin-3-yl[1,2,4]triazolo[1,5-a]pyrimidine], the IC50 was 0.17 µM.
With `N#Cc1cccc(-c2nc3nccc(-c4ccc(OC(F)F)c(OC(F)F)c4)n3n2)c1` [Compound 122, 7-(3,4-Bis-difluoromethoxyphenyl)-2-(3-cyanophenyl)-[1,2,4]triazolo[1,5-a]pyrimidine], the IC50 was 0.047 µM.

Staying with this assay, now noted: comment on Table 2.
In the case of `FC(F)Oc1ccc(-c2ccnc3nc(-c4cccc(I)c4)nn23)cc1OCC1CC1` [Compound 126, 7-[3-(Cyclopropylmethoxy)-4-(difluoromethoxy)phenyl]-2-(3-iodophenyl)-[1,2,4]triazolo[1,5-a]pyrimidine], the “activity on inhibiting PDE-4 (in words)” value is “most excellent activity”.
Still for that read-out and setting: as for `COc1cccc(-c2nc3nccc(-c4ccc(OC(F)F)c(OCC5CC5)c4)n3n2)c1` [Compound 107, 7-[3-(Cyclopropylmethoxy)-4-(difluoromethoxy)phenyl]-2-(3-methoxyphenyl)-[1,2,4]triazolo[1,5-a]pyrimidine], the entry is “excellent activity on inhibiting PDE-4”; as for `N#Cc1cccc(-c2nc3nccc(-c4ccc(OC(F)F)c(OCC5CC5)c4)n3n2)c1` [Compound 115, 2-(3-Cyanophenyl)-7-[3-(cyclopropylmethoxy)-4-(difluoromethoxy)phenyl]-[1,2,4]triazolo[1,5-a]pyrimidine], “excellent activity on inhibiting PDE-4”; as for `Nc1cccc(-c2nc3nccc(-c4ccc(OC(F)F)c(OCC5CC5)c4)n3n2)c1` [Compound 119, 2-(3-Aminophenyl)-7-[3-(cyclopropylmethoxy)-4-(difluoromethoxy)phenyl]-[1,2,4]triazolo[1,5-a]pyrimidine], “excellent activity on inhibiting PDE-4”.
As for `FC(F)Oc1ccc(-c2ccnc3nc(-c4cccc(Br)c4)nn23)cc1OCC1CC1` [Compound 121, 2-(3-Bromophenyl)-7-[3-(cyclopropylmethoxy)-4-(difluoromethoxy)phenyl]-[1,2,4]triazolo[1,5-a]pyrimidine], the “activity on inhibiting PDE-4 (in words)” value was “excellent activity on inhibiting PDE-4”.
